# System: adult e-cigarette users
# Conditions: 12 Weeks, N = 106, Safety Set
# Text: A second measurement consisted of biochemically verified continuous vaping abstinence at any time during treatment, with vaping abstinence at Week 3-6 or Week 6-9 for of cytisinicline treatment vs placebo. 7-day point prevalence rates were compared for vaping abstinence (Week 2 to 12) (FIG. 62). An additional measurement included reduction in daily vaping as measured by cotinine, where cytisinicline treatment vs placebo for a reduction in nicotine vaping using weekly quantitative cotinine levels from Week 2 to Week 12. Safety was assessed by adverse effects and serious adverse effects, considering number, severity, and attribution to study drug.
structure (smiles),measurement,value
"O=c1cccc2n1C[C@@H]1CNC[C@H]2C1 [cytisine, (−)-Cytisine]","At Least One AE, Events",123 Events
same,"At Least One AE, subjects",56 (52.8) n (%)
same,At Least One Related Serious TEAE,0 n (%)/Events
same,At Least One Serious TEAE,0 n (%)/Events
same,"At Least One TEAE Leading to Dose Reduction, Dose Interrupted or Study Drug Discontinuation",7 (6.6) n (%)
same,Subjects with Dose Reduction,3 (2.8) n (%)
same,"TEAE Abdominal discomfort, subjects %",(0.9) %
same,"TEAE Abdominal discomfort, subjects n",1 n
same,"TEAE Abnormal dreams, subjects %",(12.3) %
same,"TEAE Abnormal dreams, subjects n",13 n
same,"TEAE Action Taken With Study Drug: Dose Interrupted, Events",1 Events
same,"TEAE Action Taken With Study Drug: Dose Interrupted, subjects",1 (0.9) n (%)
same,"TEAE Action Taken With Study Drug: Dose Not Changed, Events",101 Events
same,"TEAE Action Taken With Study Drug: Dose Not Changed, subjects",51 (48.1) n (%)
same,"TEAE Action Taken With Study Drug: Dose Reduced, Events",3 Events
same,"TEAE Action Taken With Study Drug: Dose Reduced, subjects",3 (2.8) n (%)
same,"TEAE Action Taken With Study Drug: Drug Withdrawn, Events",7 Events
same,"TEAE Action Taken With Study Drug: Drug Withdrawn, subjects",4 (3.8) n (%)
same,"TEAE Action Taken With Study Drug: Not Applicable, Events",7 Events
same,"TEAE Action Taken With Study Drug: Not Applicable, subjects",5 (4.7) n (%)
same,"TEAE Agitation, subjects",0 n (%)
same,"TEAE Akathisia, subjects %",(0.9) %
same,"TEAE Akathisia, subjects n",1 n
same,"TEAE Alanine aminotransferase increased, subjects",0 n (%)
same,"TEAE Alveolar osteitis, subjects",0 n (%)
same,"TEAE Anal fissure, subjects %",(0.9) %
same,"TEAE Anal fissure, subjects n",1 n
same,"TEAE Animal bite, subjects %",(0.9) %
same,"TEAE Animal bite, subjects n",1 n
same,"TEAE Anxiety, subjects %",(9.4) %
same,"TEAE Anxiety, subjects n",10 n
same,"TEAE Aspartate aminotransferase increased, subjects",0 n (%)
same,"TEAE Attention deficit hyperactivity disorder, subjects %",(0.9) %
same,"TEAE Attention deficit hyperactivity disorder, subjects n",1 n
same,"TEAE Back pain, subjects %",(0.9) %
same,"TEAE Back pain, subjects n",1 n
same,"TEAE Bronchitis, subjects %",(1.9) %
same,"TEAE Bronchitis, subjects n",2 n
same,"TEAE Chlamydial infection, subjects %",(0.9) %
same,"TEAE Chlamydial infection, subjects n",1 n
same,"TEAE Concussion, subjects",0 n (%)
same,"TEAE Constipation, subjects %",(1.9) %
same,"TEAE Constipation, subjects n",2 n
same,"TEAE Decreased appetite, subjects %",(0.9) %
same,"TEAE Decreased appetite, subjects n",1 n
same,"TEAE Depressed mood, subjects",0 n (%)
same,"TEAE Depression, subjects",0 n (%)
same,"TEAE Dermatitis contact, subjects %",(0.9) %
same,"TEAE Dermatitis contact, subjects n",1 n
same,"TEAE Disturbance in attention, subjects %",(0.9) %
same,"TEAE Disturbance in attention, subjects n",1 n
same,"TEAE Dizziness, subjects %",(2.8) %
same,"TEAE Dizziness, subjects n",3 n
same,"TEAE Dry mouth, subjects %",(1.9) %
same,"TEAE Dry mouth, subjects n",2 n
same,"TEAE Dyspepsia, subjects %",(0.9) %
same,"TEAE Dyspepsia, subjects n",1 n
same,"TEAE Ear infection, subjects",0 n (%)
same,"TEAE Eye pruritus, subjects %",(0.9) %
same,"TEAE Eye pruritus, subjects n",1 n
same,"TEAE Fatigue, subjects %",(5.7) %
same,"TEAE Fatigue, subjects n",6 n
same,"TEAE Female sterilisation, subjects %",(0.9) %
same,"TEAE Female sterilisation, subjects n",1 n
same,"TEAE Gastroenteritis norovirus, subjects",0 n (%)
same,"TEAE Gastroenteritis viral, subjects",0 n (%)
same,"TEAE Gastroenteritis, subjects %",(1.9) %
same,"TEAE Gastroenteritis, subjects n",2 n
same,"TEAE Gout, subjects %",(0.9) %
same,"TEAE Gout, subjects n",1 n
same,"TEAE Headache, subjects %",(6.6) %
same,"TEAE Headache, subjects n",7 n
same,"TEAE Hot flush, subjects %",(0.9) %
same,"TEAE Hot flush, subjects n",1 n
same,"TEAE Hyperhidrosis, subjects",0 n (%)
same,"TEAE Increased appetite, subjects %",(0.9) %
same,"TEAE Increased appetite, subjects n",1 n
same,"TEAE Insomnia, subjects %",(10.4) %
same,"TEAE Insomnia, subjects n",11 n
same,"TEAE Irritability, subjects %",(2.8) %
same,"TEAE Irritability, subjects n",3 n
same,"TEAE Leading to Dose Reduction, Dose Interrupted or Study Drug Discontinuation: Abdominal discomfort",1 (0.9) n (%)
same,"TEAE Leading to Dose Reduction, Dose Interrupted or Study Drug Discontinuation: Abnormal dreams",1 (0.9) n (%)
same,"TEAE Leading to Dose Reduction, Dose Interrupted or Study Drug Discontinuation: Anal fissure",1 (0.9) n (%)
same,"TEAE Leading to Dose Reduction, Dose Interrupted or Study Drug Discontinuation: Anxiety",2 (1.9) n (%)
same,"TEAE Leading to Dose Reduction, Dose Interrupted or Study Drug Discontinuation: Depression",0 n (%)
same,"TEAE Leading to Dose Reduction, Dose Interrupted or Study Drug Discontinuation: Fatigue",1 (0.9) n (%)
same,"TEAE Leading to Dose Reduction, Dose Interrupted or Study Drug Discontinuation: Headache",0 n (%)
same,"TEAE Leading to Dose Reduction, Dose Interrupted or Study Drug Discontinuation: Insomnia",2 (1.9) n (%)
same,"TEAE Leading to Dose Reduction, Dose Interrupted or Study Drug Discontinuation: Irritability",1 (0.9) n (%)
same,"TEAE Leading to Dose Reduction, Dose Interrupted or Study Drug Discontinuation: Nausea",0 n (%)
same,"TEAE Leading to Dose Reduction, Dose Interrupted or Study Drug Discontinuation: Panic attack",2 (1.9) n (%)
same,"TEAE Leading to Dose Reduction, Dose Interrupted or Study Drug Discontinuation: Pregnancy",0 n (%)
same,"TEAE Menorrhagia, subjects %",(0.9) %
same,"TEAE Menorrhagia, subjects n",1 n
same,"TEAE Migraine, subjects %",(0.9) %

# Reference: patent publication US20260158011A1 (Achieve Life Sciences, Inc., priority 2023, published 2026)
